Test results published in article PMC6895912 (Cancers, 2019).
Entries after “also recorded” stand apart in the source; their conditions may differ. Where two headings read alike, the source gives them in different places.

Key:
[1] = system: CWR-R1, CWR-R1 (10E), CWR-R1-MTX20nM cells; assay: Colony formation (clonogenicity) assay; type: cell-based, human; conditions: parental CWR-R1 and drug-resistant counterparts, 14 days
Description: (A) Comparative GI50 values of Gal, NGGAs, and enzalutamide (ENZ) in drug-naïve-/-resistant prostate cancer cells. (B) Gal and NGGAs induce G1 cell cycle arrest in LNCaP cells. (C) VNPP414 and VNPP433-3β deplete the cell cycle regulator, cyclin D1, and upregulate p21; “+” indicates specific treatments. (D) Gal cause dose-dependent depletion of cyclin D1. (E) Unlike ENZ, Gal and VNPP433-3β inhibit colony formation of drug-naïve/-resistant cells in vitro. 1000 cells/well (CWR-R1, CWR-R1 (10E), CWR-R1-MTX20nM), seeded in 6-well plates were treated with indicated concentrations of compounds for a period of 14 days. Media containing compounds were replaced every 3 days. Colonies were stained with 0.05% crystal violet. (F) Quantification of colony formation units (CFU) in drug-naive/resistant cells. Colony assays were repeated three times and colonies counted in four quadrants of the wells. Results are represented as averages with S.E.M. (* p < 0.05, ** p < 0.001). Note: the numbers in parentheses in Figure 2B,C,E are concentrations of the agents in µM.
0.1 × 10^3 cells per well were seeded in 6-well plates and allowed to attach overnight (16 h), cells were treated with compounds in regular media (RPMI with 10% FBS) at the indicated concentrations and replaced every 3rd day for 14 days or until visible colonies could be counted. Colonies were washed and stained with 0.05% crystal violet for 30 min. Colonies were scanned and quantified (colonies counted in four quadrants of each well) with ImageJ colony counter. Results are represented as the mean of triplicates.

[2] = Plasma pharmacokinetics after single IV, IP or PO dose; type: in vivo, male CD-1 mice; conditions: for bioavailability: read-out: F (%) absolute bioavailability
Description: These studies were conducted in male CD-1 mice (7–8 weeks old, weighing about 27–33 g) were obtained from Hylasco Bio-Technology Pvt. Ltd. (A Charles River Technology Licensee, Turkapally, India). The details are presented in the Supplementary Materials.
A generic gradient LC method with a short run times of 3.5 min for Gal and 4.5 min for VNPP414 and VNPP433-3β were developed for the analysis of Gal/analogs in plasma samples. The mobile phase flow rate was 1.0 mL/min with a split ratio of 1:1 to the ionization source. The mobile phase for Gal consisted of 10 mM ammonium acetate in water as aqueous component and 100% methanol as organic modifier. For the Gal analogs, the mobile phase consisted of 0.01% formic acid in water and 100% acetonitrile. The column and autosampler were maintained at 40°C and 15°C, respectively for all assays. The turbo ion spray source was operated with typical settings as follows: ionization mode, positive; curtain gas, 30 psi; nebulizer gas (GS1), 55 psi; heater gas (GS2), 50 (for Gal analyte) and 60 (for Gal analogs analytes) psi; nebulizer gas 55 psi; temperature, 550 °C. A summary of the ion transitions, collision energies and retention times for both the analytes (Gal, VNPP414 and VNPP433- […]
components were automatically integrated using Analyst software version 1.5.
Table S1. Optimized mass spectroscopic conditions. *IS: internal standard; **Gal had two daughter ions (m/z: 119.20 and 195.20) that were used for multiple reaction monitoring (MRM) in LC-MS/MS runs. Because we observed a poor shape peak of Gal with fragment of m/z 195.20 at lower levels (LLOQ: 1 ng/mL) in plasma samples, we used fragment m/z 119.20 for the PK study. We used fragment of m/z 195.20 when Gal was used as IS where the concentration was ~200 ng/mL. This fragment was stable throughout the study.
Analytes Parent ions Daughter ions Collision energy Declustering potentials […]
1.5. Pharmacokinetics of Gal, VNPP414 and VNPP433-3β in CD-1 Mice
Male CD-1 mice (7-8 weeks old, weighing about 27-33 g) were obtained from Hylasco Bio-Technology Pvt. Ltd (A Charles River Technology Licensee in India) were maintained in a controlled environment of about 25 °C, 50% relative humidity and a 12-h light/12-h dark cycle. The compounds were formulated in either 10% DMSO in 10% solutol in phosphate-buffered saline (PBS) for single intravenous doses (1 mg/kg) or in 40% β-cyclodextrin in saline for single intraperitoneal or oral doses (10 mg/kg). 10 ml/kg dose volume used for administrating the formulation for all the three routes (IV, IP and PO). The IV administration was performed through tail vein of mice as bolus. For IP route, the compound was dosed in intraperitoneal cavity using a 27-gauze needle. PO administration was performed through gastric gavage tube (aka feeding tube). Serial blood samples were collected from 3 mice per time-point (staggered bleeding approach was used for mice where one mice was bled maximum for three time within 24h) into vacutainers containing lithium heparin (anticoagulant) at and 24 h post dose after intraperitoneal or oral administration. In total, 81 mice were used for this study. At each time point 200 μL of blood was collected into vacutainers. Venous blood Samples were collected using retro orbital puncture method. Plasma was isolated by centrifugation at 10000 rpm for 10 min and stored frozen at -80°C until assay. Plasma pharmacokinetic parameters were calculated using the non-compartmental analysis tool of Phoenix software (Version 7, Pharsight) and were determined from individual animals in each group. The area under the plasma concentration-time curve (AUC0-t and AUCinf), elimination half-life (T1/2), clearance (CL), volume of distribution (Vd) and mean residence time (MRT) were calculated from intravenous group. The peak plasma concentration (Cmax), time to achieve peak plasma concentration (Tmax), AUC0-t and AUCinf, were […]
calculated for the IP and PO groups. Absolute oral bioavailability (%F) were calculated from the PO […]

LNCaP cells = assay: Cell cycle analysis (G1 arrest); type: cell-based, human; conditions: 2.5 µM as effective as Gal at 20 µM
Description: The new NGGAs (VNPP414 and VNPP433-3β) were identified from in vitro anti-proliferative activities of our in-house compounds assessed in several PC cell lines, including LNCaP, C4-2B, and CWR22Rv1 (22Rv1). […] It was recently reported that treatment of AR-expressing bladder cancer cell lines with enzalutamide induced up-regulation of tumor suppressor, p53, p21 and PTEN, and down-regulation of several oncogenic genes, such as c-myc, cyclin D1, and cyclin E [38]. […] We note that these cell-cycle studies were conducted in LNCaP cells. Inhibition of colony formations (clonogenicity assays) was also assessed by treating the parental CWR-R1 cells and two drug-resistant counterparts with Gal, VNPP433-3β, or ENZ.
(A) Comparative GI50 values of Gal, NGGAs, and enzalutamide (ENZ) in drug-naïve-/-resistant prostate cancer cells. (B) Gal and NGGAs induce G1 cell cycle arrest in LNCaP cells. (C) VNPP414 and VNPP433-3β deplete the cell cycle regulator, cyclin D1, and upregulate p21; “+” indicates specific treatments. (D) Gal cause dose-dependent depletion of cyclin D1. (E) Unlike ENZ, Gal and VNPP433-3β inhibit colony formation of drug-naïve/-resistant cells in vitro. […] (F) Quantification of colony formation units (CFU) in drug-naive/resistant cells. Colony assays were repeated three times and colonies counted in four quadrants of the wells. […]

PC-3 cells = assay: Wound-healing cell migration assay; type: cell-based, human; conditions: PC-3, wound healing, 12 h
[3] = mouse, plasma, IP 10 mg/kg, male CD-1 mice
[4] = mouse, plasma, IV 1 mg/kg, male CD-1 mice
[5] = mouse, plasma, PO 10 mg/kg, male CD-1 mice
[6] = mouse, IP 10 mg/kg, male CD-1 mice, plasma
[7] = mouse, IV 1 mg/kg, male CD-1 mice, plasma
[8] = mouse, PO 10 mg/kg, male CD-1 mice, plasma
[9] = PO 10 mg/kg, male CD-1 mice, 10 mg/kg
[10] = male, CD-1, mouse, in vivo, ip, 10 mg/kg, IP 10 mg/kg, male CD-1 mice
[11] = male, CD-1, mouse, in vivo, po, 10 mg/kg, PO 10 mg/kg, male CD-1 mice
[12] = mouse, in vivo, IP 10 mg/kg, male CD-1 mice, plasma
[13] = mouse, in vivo, PO 10 mg/kg, male CD-1 mice, plasma

Row | SMILES | inhibition of colony formation [1] | half-life [2, 3] | bioavailability [2, 3] | half-life [2, 4] | half-life [2, 5] | bioavailability [2, 5] | AUC(0-inf) [2, 6] | Cmax [2, 6] | AUC(0-inf) [2, 7] | AUC(0-inf) [2, 8] | Cmax [2, 8] | improved potency over Gal in G1 cell cycle arrest (LNCaP cells) | inhibition of cell migration (PC-3 cells) | also measured
1 | C[C@]12CC[C@H](O)CC1=CC[C@@H]1[C@@H]2CC[C@]2(C)C(n3cnc4ccccc43)=CC[C@@H]12 [Galeterone] | markedly inhibited clonogenic ability | 1.24 h | 169% | 0.17 h | 1.26 h | 18.4% | 111 ng·h/mL | 507 ng/mL | 57.9 ng·h/mL | 969 ng·h/mL | 32.8 ng/mL |  |  | half-life ([2]; male, CD-1, mouse, plasma, range over IV, IP and PO routes, mice): 0.17 to 1.26 h
2 | C[C@]12CC[C@H](n3ccnc3)CC1=CCC1C2CC[C@]2(C)C(n3cnc4ccccc43)=CCC12 (stereo partly drawn) [VNPP433-3β] | significantly more potent than Gal; also recorded: markedly inhibited clonogenic ability |  |  |  |  |  |  |  |  |  |  | ≥ 8 fold | significant inhibition of PC-3 cells migration | F (%) absolute bioavailability [2, 9]: 49.45%; T1/2 [2, 9]: 31.19 h; half-life [2, 10]: 22.4 h; bioavailability [2, 10]: 123%; half-life ([2]; male, CD-1, mouse, in vivo, iv, 1 mg/kg, IV 1 mg/kg, male CD-1 mice): 14.3 h; half-life [2, 11]: 31.2 h; bioavailability [2, 11]: ~50%; AUC ([2]; male, CD-1, mouse, in vivo, 10 mg/kg oral dosing, mice): 71.9 µM·h; Cmax ([2]; male, CD-1, mouse, in vivo, PO 10 mg/kg, plasma, converted from ng/mL): ~2000 nM; AUC(0-inf) [2, 12]: 57300 ng·h/mL; Cmax [2, 12]: 2290 ng/mL; AUC(0-inf) ([2]; mouse, in vivo, IV 1 mg/kg, male CD-1 mice, plasma): 3470 ng·h/mL; AUC(0-inf) [2, 13]: 31800 ng·h/mL; Cmax [2, 13]: 706 ng/mL
3 | C[C@]12CC[C@H](OCc3ccncc3)CC1=CCC1C2CC[C@]2(C)C(n3cnc4ccccc43)=CCC12 (some centres unmarked) [VNPP414] |  | 6.25 h | 157% | 7.48 h | 4.3 h | 19.4% | 8600 ng·h/mL | 2170 ng/mL | 547 ng·h/mL | 1030 ng·h/mL | 175 ng/mL | ≥ 8 fold | significant inhibition of PC-3 cells migration | 
